# B1: LamB signal sequence plus the first β strand peptide (SS-β1) (peptide)
# peptide: MMITLRKLPLAVAVAAGVMSAQAYAVDFHGYARSGIGWTG
# B2: LamB signal sequence peptide (SS) (peptide)
# peptide: MMITLRKLPLAVAVAAGVMSAQAYA
# Tests used:
# SecYEG [1] = target: T1, SecYEG (Escherichia coli, UniProt P0AG96+P0AG99+P0AGA2); format: binding; settings: 1.65 μM SecYEG, 3.2 mg/ml E. coli polar lipids, 10 μM peptide; reisolated by centrifugation; SDS-PAGE, silver staining; Figure 1D
# T1 sequence (P0AGA2 1-443): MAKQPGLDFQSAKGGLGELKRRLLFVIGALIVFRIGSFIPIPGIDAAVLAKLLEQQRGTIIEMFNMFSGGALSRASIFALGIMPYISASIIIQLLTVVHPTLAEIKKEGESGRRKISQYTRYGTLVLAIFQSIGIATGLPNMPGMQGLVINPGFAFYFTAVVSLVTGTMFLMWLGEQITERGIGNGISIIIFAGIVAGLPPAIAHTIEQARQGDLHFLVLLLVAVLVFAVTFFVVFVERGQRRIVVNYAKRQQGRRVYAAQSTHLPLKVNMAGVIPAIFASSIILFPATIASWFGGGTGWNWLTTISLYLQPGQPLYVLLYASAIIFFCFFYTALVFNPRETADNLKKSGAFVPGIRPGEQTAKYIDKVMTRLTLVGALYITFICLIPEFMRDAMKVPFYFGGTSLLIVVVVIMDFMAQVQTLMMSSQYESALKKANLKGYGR
# T1 sequence (P0AG96 1-127 partner): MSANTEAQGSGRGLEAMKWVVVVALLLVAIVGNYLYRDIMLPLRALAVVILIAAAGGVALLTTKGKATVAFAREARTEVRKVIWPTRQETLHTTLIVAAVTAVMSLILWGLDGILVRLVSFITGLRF
# T1 sequence (P0AG99 1-110 partner): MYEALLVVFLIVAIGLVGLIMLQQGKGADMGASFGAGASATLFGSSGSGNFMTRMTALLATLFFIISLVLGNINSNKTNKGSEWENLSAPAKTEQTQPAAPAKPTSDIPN
# SecYEG [2] = target: T1, SecYEG; assay: Translocation of OmpA into vesicles coreconstituted with SecYEG and peptide; format: biochemical; settings: vesicles reisolated from excess unbound peptide; western blot; n = 8; Figure 1E
# SecYEG [3] = settings: membranes containing SecYEG; ref Simon and Blobel, 1992; cited from earlier work
# SecA = settings: synthetic LamB signal peptide; ref Gelis et al., 2007; cited from earlier work
# trypsin = assay: Resistance of peptide in SecYEG 2D crystals to trypsin; format: in vitro ADME; settings: 1:100 (w/w) trypsin, 20 min, room temperature; Coomassie-stained SDS-PAGE; Figure 1F
# SecYEG [4] = target: T1, SecYEG; assay: SecA/ATP-driven translocation of preprotein proOmpA into SecYEG proteoliposomes; format: biochemical; settings: proteoliposomes containing SecYEG; 0.7 μM proOmpA; 25°C, pH 7.5; proteinase K protection, western blot; Figures 1A and 1B
# SecYEG [5] = settings: dimer vs monomer; ref Deville et al., 2011; cited from earlier work
# SecYEG complex [6] = target: T2, SecYEG complex (E. coli, UniProt P0AGA2 1-443; P0AG96 1-127; P0AG99 1-110); assay: cryo-EM structure
# T2 sequence (looked up) 1: T1 sequence (P0AGA2 1-443)
# T2 sequence (looked up) 2: T1 sequence (P0AG96 1-127 partner)
# T2 sequence (looked up) 3: T1 sequence (P0AG99 1-110 partner)
# SecYEG complex [7] = target: T2, SecYEG complex; assay: co-sedimentation
molecule,measurement,setting,value
MMITLRKLP-(ΔLAVA)-VAAGVMSAQAYA-VDFHGYARSGIGWTG [SSΔ4-β1],peptide retained following coreconstitution with SecYEG,SecYEG [1],"but not SSΔ4-β1, were retained following coreconstitution with SecYEG"
MMITLRKLPLAVAVAAGVMSAQAYA [SS],translocation of OmpA after coreconstitution of SecYEG with peptide,SecYEG [2],permitted the translocation of OmpA
same,channel opening,SecYEG [3],opens channels in membranes containing SecYEG
same,effect of association with SecA on protein translocation,SecA,competitive inhibition of protein translocation
same,peptide retained following coreconstitution with SecYEG,SecYEG [1],retained following coreconstitution with SecYEG
MMITLRKLPLAVAVAAGVMSAQAYA-VDFHGYARSGIGWTG [SS-β1],translocation of OmpA after coreconstitution of SecYEG with peptide,SecYEG [2],permitted the translocation of OmpA
same,resistance to proteolysis by trypsin in SecYEG 2D crystals,trypsin,resistance to proteolysis
same,peptide retained following coreconstitution with SecYEG,SecYEG [1],retained following coreconstitution with SecYEG
same,inhibition of SecA/ATP-driven translocation of proOmpA,SecYEG [4],quantitatively inhibits
SecA: ATPase that associates peripherally with the protein-channel complex SecYEG,affinity of SecA for the SecYEG dimer over the monomer,SecYEG [5],10 fold
B1,stoichiometry N,SecYEG complex [6],1 substrate per SecYEG dimer
B2,binding result,SecYEG complex [7],binds

# Source: paper PMC3333808 (Cell Reports, 2012)
